The text below walks through data of patent US20230080270A1, “NANOPARTICLES ENCAPSULATING SMALL MOLECULES” (ETH ZURICH, priority 2020, published 2023).

Where “and” joins values, the source holds several entries; their conditions need not be identical. Equal values may be shown once.

In series [1] the test system is HeLa cells. Nature of the series: Cell viability assay (WST-8-based Cell Counting Kit-8). The settings on record: 2.5 μM lapatinib, 18 hour incubation. Also on record: species or system human. The protocol:
(§1) Cell culture. HeLa cells were maintained in Dulbecco's Modified Eagle Medium (high glucose) supplemented with 10% fetal bovine serum (FBS), 2 mM L-glutamine, 2 mM GlutaMAX and 1 μg/mL gentamicin. Cells were cultured in 5% CO2 at 37° C. and typically split in a 1:4 ratio every 3 days. Only passage numbers between 7-20 were used for all experiments.
Cell viability assay. Cytotoxicity was assessed using the WST-8-based Cell Counting Kit-8 from Sigma according to the manufacturer's instructions. HeLa cells were seeded at a density of 5,000 cells per well in a 96-well plate in 100 μL of culture medium and allowed to recover at 37° C. and 5% CO2 for 24 hours. Protein, surfactant and drug samples were prepared by serial dilution in sterile PBS. As a negative control 10 μL of 10% Triton X-100 in PBS were used per well. The positive control was just PBS. […] The plate was then incubated for 2-4 hours at 37° C. and 5% CO2 before measuring absorbance at 450 nm. The absorbance of CKK-8 in culture media, without cells, was used for background subtraction and samples were normalized to untreated cells to provide the values shown in FIG. 4e,f. Samples were measured in sextuplicate with biological replicates of different protein batches.
For orientation: Formazan colour is commonly taken as a measure of viable cells.

Series [2] has as its system HeLa cells. Nature of the series: Flow cytometry of cellular uptake in HeLa cells. The following applies: 500 nM Nile Red, population gating based on the PBS control. Type of series: cell-based, human. The method, then: as §1
Flow cytometry. HeLa cells were seeded at a density of 30,000 cells per well in a 24-well plate in 500 μL of culture medium and allowed to recover at 37° C. and 5% CO2 for 24 hours to reach 60-80% confluency. Both OP protein and surfactant solutions were sterilized by filtration through a 0.22 μm membrane, and stocks were prepared in sterile PBS. Nile Red solution (50 μM) in 1:1 EtOH:H2O was used without sterilization. OP capsid-micelle complexes were prepared as described above. For each well 20 μL of sample in PBS was added to 200 μL of culture media to give the final concentration of 200 nM. Cells were incubated for 16-20 h in 5% CO2 at 37° C. before washing with PBS and trypsinization (0.05% Trypsin-EDTA (Thermo Fisher Scientific, USA), 4 minutes at 37° C.). Cells were collected in cold culture medium and washed twice with cold PBS before resuspension in flow cytometry buffer (PBS with 5% FBS).

The conditions of series [3]: cited from earlier work.
The conditions of series [4]: in PBS buffer; cited from earlier work.
A short description of series [5]: Nile Red fluorescence titration (surfactant content and cargo capacity). The format is physicochemical. The settings on record: two equivalents of Nile Red, increasing SDS content. The protocol: Nile Red fluorescence. For a typical fluorimetry experiment, 800 μL samples in PBS buffer were used. For the surfactant loading kinetics the ionic strength was adjusted by dissolving appropriate amounts of NaCl in PBS buffer. Stock solutions of Nile Red in acetone:water (1:1 v/v), or DMSO at concentrations of 50-500 μM were used. The excitation wavelength was set to 535 nm for all experiments.
This number fits with a value of —730 calculated from the volumetric capacity of the OP cavity (˜256 nm^3) and the average volume occupied by an SDS molecule in a micelle (Methods section).
As cargo-carrying is an important characteristic of the protein-micelle complex, the inventors also used fluorescence titration to determine the number of Nile Red molecules that could be accommodated per cage. Single equivalents of Nile Red were added stepwise to a solution of OP:SDS complexes and the fluorescence spectra measured for each addition (FIG. 3d). Between 1-5 molecules of Nile Red per cage, a logarithmic increase in fluorescence emission is observed with each equivalent. From 5-20 molecules of Nile Red a steady decrease in fluorescence is observed, and above 20 a steady increase in fluorescence is observed. We attribute these three distinct stages to: i) Nile Red encapsulation, ii) self-quenching and iii) excess free dye. […]

Series [6] can be described thus: Native agarose gel electrophoresis of OP with increasing SDS equivalents. The format is physicochemical. The settings on record: up to 2000 SDS molecules per cage. The source says:
Native agarose gel electrophoresis.
Cage-templated micelle formation. Sodium dodecyl sulfate (SDS) was chosen as the anionic surfactant (FIG. 2a), due to its aqueous solubility and the potential for favourable hydrogen bond formation between the sulfate headgroup and the many arginine residues on the interior surface of the OP capsid. As SDS is typically used as a protein denaturant, the inventors were curious if charge and shape complementarity of the OP cage could be leveraged to drive formation of a scaffolded micelle, rather than allowing hydrophobic interactions with the protein core to dominate, a pathway that leads to disruption of protein structure. As such, OP was subject to increasing molar equivalents of SDS, up to 2000 molecules per cage, and analyzed by native gel electrophoresis (FIG. 2b).

The nature of series [7]: Effective concentration / volumetric capacity calculations. The settings on record: OP cavity ~256 nm^3; SDS micelle radius 17.5 Å, aggregation number 64. The source says: Effective concentration calculations. The volume of the OP lumenal cavity (255,528 A) was estimated as a sphere with a radius of 39.4 A. This radius determined by averaging the distances between lumenally exposed residues from the reported crystal structure (Edwardson et al., 2018, op. cit.), using the UCSF Chimera software (Pettersen, E. F. et al. UCSF Chimera—a visualization system for exploratory research and analysis. J. Comput. Chem. 25, 1605-1612 (2004)). The effective concentration of SDS was simply estimated as the number of moles SDS per lumenal cavity volume. The expected number of SDS molecules was estimated by first determining the volume occupied by an individual SDS molecule in a micelle, from the reported average values of SDS micelle radius (17.5 Å) and aggregation number (n=64). Division of the OP cavity volume by the average volume of a single SDS molecule packed into micellar aggregates gives an estimated value of 729 molecules per OP cage, which is within error of the volume estimations and experimental results, which approximate 800 molecules.

As for `CS(=O)(=O)CCNCc1ccc(-c2ccc3ncnc(Nc4ccc(OCc5cccc(F)c5)c(Cl)c4)c3c2)o1` [lapatinib], in the series with HeLa cells [1], the “effect on cell viability” value is “negligible effect”.

For `CCN(CC)c1ccc2nc3c4ccccc4c(=O)cc-3oc2c1` [Nile Red], in the series with HeLa cells [2], the “fraction of cells Nile Red positive” value is listed as 58%. In series [3], the “solubility limit in organic solvents” value is < 5 mM.

For the molecule `CCCCCCCCCCCCOS(=O)(=O)[O-].[Na+]` [SDS, Sodium dodecyl sulfate], in series [4], the critical micelle concentration is 4 to 5 mM.

B1: OP: 24-mer octahedral porous protein cage with positively charged interior, polypeptide SEQ ID NO: 2 (protein)
chain: MSQAIGILELRSIAAGMELGDAMLKSANVDLLVSKTISRGKFLLMLGGDIGAIQQAIETGTSQAGRLLVDSLVLANIHPSVLPAISGLNSVDKRQAVGIVETRSVAACISAADRAVKGSNVTLVRVHMARGIGGKCYMVVAGDVSDVALAVTVASSSAGAYGRLVYASLIPRPHEAMWRQMVEGLEHHHHHH
modifications: 24-mer cage assembly
As for B1, in series [5], the “surfactant molecules per cage at plateau of Nile Red fluorescence” value is given as ~800 molecules per cage. Further, the “SDS equivalents per protein cage up to which no change to quaternary structure” value in series [6] was “approximately 800 equivalents of SDS per protein cage”. Moreover, in series [7], the “SDS molecules per OP cage calculated from cavity volume and volume of an SDS molecule in a micelle” value is 729 molecules per OP cage and 730 molecules per OP cage.
